Data taken from publication PMC9571063 (Molecules, 2022).
Structures can show the parent of a compound that is named as a salt. Where two headings read alike, the source gives them in different places.

Experiments:
HsDYRK1A = biological target: T1, HsDYRK1A (Homo sapiens, UniProt Q13627); assay: ADP-Glo kinase assay; format: biochemical; conditions: for remaining activity at 1 µM / remaining activity at 10 µM: n=2, read-out: % of residual activity Hs_DYRK1A; for IC50: 10 µM ATP, duplicate
T1 construct: host or cells: Sf9 insect cells (baculovirus)

MmCLK1 = biological target: T2, MmCLK1 (Mus musculus, UniProt P22518); assay: ADP-Glo kinase assay; format: biochemical; conditions: for remaining activity at 1 µM / remaining activity at 10 µM: n=2, read-out: % of residual activity Mm_CLK1; for IC50: mouse CLK1 orthologue, read-out: IC50 MmCLK1
T2 construct: host or cells: bacteria

Hs_CDK5/p25 = biological target: T3, Hs_CDK5/p25 (Homo sapiens, UniProt Q00535); assay: ADP-Glo kinase assay, primary screen; format: biochemical; conditions: n=2, read-out: % of residual activity Hs_CDK5/p25
T3 construct: host or cells: bacteria

Hs_CDK9/CyclinT = biological target: T4, Hs_CDK9/CyclinT (Homo sapiens, UniProt P50750); assay: ADP-Glo kinase assay, primary screen; format: biochemical; conditions: n=2, read-out: % of residual activity Hs_CDK9/CyclinT
T4 construct: host or cells: Sf9 insect cells (baculovirus)

Hs_PIM1 = biological target: T5, Hs_PIM1 (Homo sapiens, UniProt P11309); assay: ADP-Glo kinase assay, primary screen; format: biochemical; conditions: n=2, read-out: % of residual activity Hs_PIM1
T5 construct: host or cells: Sf9 insect cells (baculovirus)

Rn_DYRK1A = biological target: T6, Rn_DYRK1A (Rattus norvegicus, UniProt Q63470); assay: ADP-Glo kinase assay, primary screen; format: biochemical; conditions: n=2, read-out: % of residual activity Rn_DYRK1A
T6 construct: host or cells: bacteria

Hs_HASPIN = biological target: T7, Hs_HASPIN (Homo sapiens, UniProt Q8TF76); assay: ADP-Glo kinase assay, primary screen; format: biochemical; conditions: n=2, read-out: % of residual activity Hs_HASPIN
T7 construct: host or cells: bacteria
T7 sequence (Q8TF76 1-798): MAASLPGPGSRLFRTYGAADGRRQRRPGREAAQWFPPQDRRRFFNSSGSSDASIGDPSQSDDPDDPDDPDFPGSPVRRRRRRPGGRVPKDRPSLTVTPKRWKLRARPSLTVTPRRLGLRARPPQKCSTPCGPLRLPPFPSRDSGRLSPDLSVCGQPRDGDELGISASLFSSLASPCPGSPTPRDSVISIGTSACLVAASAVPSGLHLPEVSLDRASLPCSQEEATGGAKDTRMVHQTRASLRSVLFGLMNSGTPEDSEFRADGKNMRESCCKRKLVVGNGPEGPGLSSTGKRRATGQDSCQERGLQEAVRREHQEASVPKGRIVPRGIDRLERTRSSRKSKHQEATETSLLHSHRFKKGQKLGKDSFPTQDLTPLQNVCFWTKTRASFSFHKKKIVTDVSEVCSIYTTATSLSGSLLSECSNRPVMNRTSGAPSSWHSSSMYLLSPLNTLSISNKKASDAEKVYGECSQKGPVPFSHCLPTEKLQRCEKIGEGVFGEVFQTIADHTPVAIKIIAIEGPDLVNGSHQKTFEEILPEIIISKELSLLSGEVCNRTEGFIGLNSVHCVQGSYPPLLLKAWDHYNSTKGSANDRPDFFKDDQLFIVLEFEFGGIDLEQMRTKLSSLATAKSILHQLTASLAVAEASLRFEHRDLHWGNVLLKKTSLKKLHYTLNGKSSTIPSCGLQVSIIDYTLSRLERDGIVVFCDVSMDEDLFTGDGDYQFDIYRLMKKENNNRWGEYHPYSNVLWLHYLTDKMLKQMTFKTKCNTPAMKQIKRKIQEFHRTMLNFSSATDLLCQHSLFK

Hs_GSK3β = biological target: T8, Hs_GSK3β (Homo sapiens, UniProt P49841); assay: ADP-Glo kinase assay, primary screen; format: biochemical; conditions: n=2, read-out: % of residual activity Hs_GSK3β
T8 construct: host or cells: Sf9 insect cells (baculovirus)

Hs_CK1ε = biological target: T9, Hs_CK1ε (Homo sapiens, UniProt P49674); assay: ADP-Glo kinase assay, primary screen; format: biochemical; conditions: n=2, read-out: % of residual activity Hs_CK1ε
T9 construct: host or cells: Sf9 insect cells (baculovirus)

[1] = cytotoxic assay, nuclei count (Hoechst, HCS); format: cell-based; conditions: human, HuH7 cells (hepatocellular carcinoma); 48 h treatment; read-out: Cytotoxic studies IC50 HuH7
[2] = cytotoxic assay, nuclei count (Hoechst, HCS); format: cell-based; conditions: human, Caco-2 cells (colorectal adenocarcinoma); 48 h treatment; read-out: Cytotoxic studies IC50 Caco2
[3] = cytotoxic assay, nuclei count (Hoechst, HCS); format: cell-based; conditions: human, MDA-MB-231 cells (breast carcinoma); 48 h treatment; read-out: Cytotoxic studies IC50 MDA-MB-231
[4] = cytotoxic assay, nuclei count (Hoechst, HCS); format: cell-based; conditions: human, 48 h treatment
Description: (§1) To complete our study, we performed a cytotoxicity screening of the 15 molecules, investigating 7 representative cancer cell lines. The compound’s effect on cell viability was evaluated on Huh-7 (hepatocellular carcinoma), CaCo2, HCT-116 (colorectal adenocarcinoma), MCF7, MDA-MB231, MDA-MB468 (breast carcinoma), PC3 (prostate carcinoma) and NCI-H727 (lung carcinoid). Human skin fibroblasts were used as reference for non-cancerous cells. Roscovitine, Doxorubicin and Taxol were used as positive controls. The cells were treated for 48 h with 25 µM compounds and fixed in cooled 90% ethanol/5% acetic acid for 20 min. The nuclei were stained with Hoechst 33342 and counted using HCS technology.
(§2) HuH7, CaCo-2, MDA-MB-231, HCT116, PC3, MCF7 and NCI-H727 cancer cell lines were obtained from the ECACC collection (Porton Down, UK). Cells were grown at 37 °C, 5% CO2 in ECACC recommended media: DMEM for HuH7, MDA-MB-231 and fibroblast, EMEM for MCF7and CaCo-2, McCoy’s for HCT116 and RPMI for PC3 and NCI-H727. All culture media were supplemented with 10% of FBS, 1% of penicillin-streptomycin and 2 mM glutamine.
(§3) Chemicals were solubilized in DMSO at a concentration of 10 mM (stock solution) and diluted in culture medium to the desired final concentrations.
[…] Cells were plated in 96 wells plates (4000 cells/well). Twenty-four hours after seeding, cells were exposed to chemicals. After 48 h of treatment, cells were washed in PBS and fixed in cooled 90% ethanol/5% acetic acid for 20 min and the nuclei were stained with Hoechst 33342 (B2261 Sigma). Image acquisition and analysis were performed using a CellomicsArrayScan VTI/HCS Reader (ThermoScientific, Waltham, MA, USA). The survival percentages were calculated as the percentage of cell number after compound treatment over cell number after DMSO treatment.

[5] = cytotoxic assay, nuclei count (Hoechst, HCS); format: cell-based; conditions: human, MCF7 cells (breast carcinoma); 48 h treatment; read-out: Cytotoxic studies IC50 MCF7
Description: as §1, §2, §3
(§4) The cytotoxic assay of chemical was performed at 25 µM. Cells were plated in 96 wells plates (4000 cells/well). Twenty-four hours after seeding, cells were exposed to chemicals. After 48 h of treatment, cells were washed in PBS and fixed in cooled 90% ethanol/5% acetic acid for 20 min and the nuclei were stained with Hoechst 33342 (B2261 Sigma). Image acquisition and analysis were performed using a CellomicsArrayScan VTI/HCS Reader (ThermoScientific, Waltham, MA, USA). The survival percentages were calculated as the percentage of cell number after compound treatment over cell number after DMSO treatment.

[6] = cytotoxic assay, nuclei count (Hoechst, HCS); format: cell-based, human; conditions: human, human skin fibroblasts (non-cancerous reference cells); 48 h treatment; some cells add low/moderate/high amplitude; read-out: Cytotoxic studies IC50 Fibroblasts
Description: as §1, §2, §3, §4

[7] = HCT116 cells (colorectal adenocarcinoma), read-out: Cytotoxic studies IC50 HCT116
[8] = MDA-MB-468 cells (breast carcinoma), read-out: Cytotoxic studies IC50 MDA-MB-468

T4 sequence (P50750 whole entry): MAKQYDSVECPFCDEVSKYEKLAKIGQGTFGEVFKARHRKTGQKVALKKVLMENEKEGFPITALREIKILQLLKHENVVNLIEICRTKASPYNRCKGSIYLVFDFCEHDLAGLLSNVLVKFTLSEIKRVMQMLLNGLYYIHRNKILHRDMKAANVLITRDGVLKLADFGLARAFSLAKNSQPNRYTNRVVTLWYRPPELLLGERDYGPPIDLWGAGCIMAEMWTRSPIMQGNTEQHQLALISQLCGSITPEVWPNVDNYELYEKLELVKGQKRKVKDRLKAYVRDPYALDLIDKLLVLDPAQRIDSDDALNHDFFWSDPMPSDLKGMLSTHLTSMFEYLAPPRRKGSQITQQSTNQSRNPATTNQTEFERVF
T4 sequence (O60563 whole entry partner): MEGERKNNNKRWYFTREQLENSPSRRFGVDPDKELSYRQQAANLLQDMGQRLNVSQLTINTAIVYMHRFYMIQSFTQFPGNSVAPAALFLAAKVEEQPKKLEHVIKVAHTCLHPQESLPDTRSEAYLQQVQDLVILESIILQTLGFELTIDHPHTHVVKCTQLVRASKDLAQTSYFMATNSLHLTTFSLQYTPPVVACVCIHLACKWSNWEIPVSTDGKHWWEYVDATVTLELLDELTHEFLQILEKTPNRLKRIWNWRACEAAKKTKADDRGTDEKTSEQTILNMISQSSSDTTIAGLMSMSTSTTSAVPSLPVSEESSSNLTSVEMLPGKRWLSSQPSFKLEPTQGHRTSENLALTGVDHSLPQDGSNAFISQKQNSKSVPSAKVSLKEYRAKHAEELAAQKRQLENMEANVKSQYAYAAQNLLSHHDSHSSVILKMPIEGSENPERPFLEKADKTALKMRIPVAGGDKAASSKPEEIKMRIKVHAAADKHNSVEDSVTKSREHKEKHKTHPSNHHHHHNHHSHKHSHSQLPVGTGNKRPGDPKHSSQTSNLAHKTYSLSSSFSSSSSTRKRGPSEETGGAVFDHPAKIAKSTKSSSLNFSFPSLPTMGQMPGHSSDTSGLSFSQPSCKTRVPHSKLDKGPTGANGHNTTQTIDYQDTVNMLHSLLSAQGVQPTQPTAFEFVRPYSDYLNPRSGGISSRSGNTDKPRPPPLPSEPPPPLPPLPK
T3 sequence (Q00535 whole entry): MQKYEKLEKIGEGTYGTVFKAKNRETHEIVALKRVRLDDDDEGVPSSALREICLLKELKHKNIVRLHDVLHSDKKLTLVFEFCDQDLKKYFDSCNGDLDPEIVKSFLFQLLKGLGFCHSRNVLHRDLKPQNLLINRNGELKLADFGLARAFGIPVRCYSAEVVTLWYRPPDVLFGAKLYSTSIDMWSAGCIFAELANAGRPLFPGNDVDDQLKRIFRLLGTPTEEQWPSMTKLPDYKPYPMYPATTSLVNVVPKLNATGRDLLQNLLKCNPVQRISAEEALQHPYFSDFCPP
T3 sequence (Q15078 99-307 partner limits assumed): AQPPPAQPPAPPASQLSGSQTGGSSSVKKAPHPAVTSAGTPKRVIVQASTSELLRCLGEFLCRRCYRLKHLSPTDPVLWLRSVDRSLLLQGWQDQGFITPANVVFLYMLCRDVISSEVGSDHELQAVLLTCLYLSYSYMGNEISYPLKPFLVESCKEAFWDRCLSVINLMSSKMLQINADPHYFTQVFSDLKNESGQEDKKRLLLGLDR
T5 sequence (P11309 whole entry): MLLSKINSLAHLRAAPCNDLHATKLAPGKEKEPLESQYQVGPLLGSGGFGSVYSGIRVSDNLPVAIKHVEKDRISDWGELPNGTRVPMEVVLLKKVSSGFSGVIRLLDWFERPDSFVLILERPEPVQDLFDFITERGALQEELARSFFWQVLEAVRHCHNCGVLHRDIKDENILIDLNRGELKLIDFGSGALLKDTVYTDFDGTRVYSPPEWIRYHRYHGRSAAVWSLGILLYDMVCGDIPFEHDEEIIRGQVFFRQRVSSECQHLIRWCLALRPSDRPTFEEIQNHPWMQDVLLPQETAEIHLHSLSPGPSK
T9 sequence (P49674 whole entry): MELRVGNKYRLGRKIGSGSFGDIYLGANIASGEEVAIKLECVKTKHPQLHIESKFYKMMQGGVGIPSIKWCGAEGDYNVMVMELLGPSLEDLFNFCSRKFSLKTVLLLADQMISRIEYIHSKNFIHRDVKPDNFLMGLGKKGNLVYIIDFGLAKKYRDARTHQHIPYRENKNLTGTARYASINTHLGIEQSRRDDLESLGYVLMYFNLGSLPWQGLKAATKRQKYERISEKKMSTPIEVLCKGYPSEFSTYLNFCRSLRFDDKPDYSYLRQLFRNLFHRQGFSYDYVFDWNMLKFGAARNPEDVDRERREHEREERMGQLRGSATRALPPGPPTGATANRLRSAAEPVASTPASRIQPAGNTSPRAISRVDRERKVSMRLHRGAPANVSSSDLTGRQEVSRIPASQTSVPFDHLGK
T8 sequence (P49841 whole entry): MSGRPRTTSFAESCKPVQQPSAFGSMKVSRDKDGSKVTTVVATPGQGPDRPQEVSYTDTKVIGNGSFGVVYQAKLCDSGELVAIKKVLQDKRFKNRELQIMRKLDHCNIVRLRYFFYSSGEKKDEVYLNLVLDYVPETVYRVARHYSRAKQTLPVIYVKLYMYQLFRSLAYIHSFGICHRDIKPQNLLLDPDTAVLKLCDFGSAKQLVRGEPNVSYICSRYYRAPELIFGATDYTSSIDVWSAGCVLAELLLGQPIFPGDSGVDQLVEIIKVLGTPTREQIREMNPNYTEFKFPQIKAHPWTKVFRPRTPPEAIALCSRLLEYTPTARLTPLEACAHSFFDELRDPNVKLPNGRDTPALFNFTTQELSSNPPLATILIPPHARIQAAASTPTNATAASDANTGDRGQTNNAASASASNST
T2 sequence (P22518 whole entry): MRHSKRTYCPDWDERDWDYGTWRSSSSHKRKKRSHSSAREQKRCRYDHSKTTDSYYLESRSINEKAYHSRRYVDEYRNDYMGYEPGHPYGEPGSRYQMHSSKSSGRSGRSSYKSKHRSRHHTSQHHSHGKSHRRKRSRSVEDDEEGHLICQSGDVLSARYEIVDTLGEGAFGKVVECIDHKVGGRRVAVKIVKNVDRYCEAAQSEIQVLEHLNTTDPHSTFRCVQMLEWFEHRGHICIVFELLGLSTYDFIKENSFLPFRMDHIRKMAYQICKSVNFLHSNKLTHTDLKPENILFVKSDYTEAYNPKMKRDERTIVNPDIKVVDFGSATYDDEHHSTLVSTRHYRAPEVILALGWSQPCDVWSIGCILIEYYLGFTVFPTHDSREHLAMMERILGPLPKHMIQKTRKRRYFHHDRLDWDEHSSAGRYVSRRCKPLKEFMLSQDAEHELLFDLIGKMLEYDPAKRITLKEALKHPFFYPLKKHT

Row | Structure (SMILES) | remaining activity at 1 µM (HsDYRK1A) [%] | remaining activity at 10 µM (HsDYRK1A) [%] | remaining activity at 1 µM (MmCLK1) [%] | remaining activity at 10 µM (MmCLK1) [%] | remaining activity at 1 µM (Hs_CDK5/p25) [%] | remaining activity at 10 µM (Hs_CDK5/p25) [%] | remaining activity at 1 µM (Hs_CDK9/CyclinT) [%] | remaining activity at 10 µM (Hs_CDK9/CyclinT) [%] | remaining activity at 1 µM (Hs_PIM1) [%] | remaining activity at 10 µM (Hs_PIM1) [%] | remaining activity at 1 µM (Rn_DYRK1A) [%] | remaining activity at 10 µM (Rn_DYRK1A) [%] | remaining activity at 1 µM (Hs_HASPIN) [%] | remaining activity at 10 µM (Hs_HASPIN) [%] | remaining activity at 1 µM (Hs_GSK3β) [%] | remaining activity at 10 µM (Hs_GSK3β) [%] | remaining activity at 1 µM (Hs_CK1ε) [%] | remaining activity at 10 µM (Hs_CK1ε) [%] | IC50 at 48 h [1] [µM] | IC50 at 48 h [2] [µM] | further results
1 | N[C@H]1CC[C@H](n2cc(COc3cccc4cnc(Nc5cccc(Cl)c5)nc34)nn2)CC1 [19a, 8-((1-((trans)-4-Aminocyclohexyl)-1H-1,2,3-triazol-4-yl)methoxy)-N-(3-chlorophenyl)quinazolin-2-amine hydrochloride] | 84 | 34 | 20 | 10 | ≥ 100 | 30 | 65 | 30 | 62 | 40 | 78 | 64 | 70 | 92 | 50 | 23 | 73 | 22 | 8 | 11 | IC50 (HsDYRK1A): 3.72 µM; IC50 (MmCLK1): 0.2 µM; IC50 at 48 h [3]: 6 µM; IC50 at 48 h [4, 7]: 7 µM; IC50 at 48 h [4, 8]: 7 µM; IC50 at 48 h [5]: 11 µM; IC50 at 48 h [6]: 1.3 µM
2 | N[C@H]1CC[C@H](n2cc(COc3cccc4cnc(Nc5cc(Cl)cc(Cl)c5)nc34)nn2)CC1 [19b, 8-((1-((trans)-4-Aminocyclohexyl)-1H-1,2,3-triazol-4-yl)methoxy)-N-(3,5-dichlorophenyl)quinazolin-2-amine hydrochloride] | ≥ 100 | 55 | 12 | 7 | ≥ 100 | 42 | 91 | 42 | 79 | 44 | 92 | 92 | 95 | 90 | 44 | 15 | 63 | 20 | 14 | 3 | IC50 (HsDYRK1A): 5.44 µM; IC50 (MmCLK1): 0.21 µM; IC50 at 48 h [3]: 2 µM; IC50 at 48 h [4, 7]: 4 µM; IC50 at 48 h [4, 8]: 1.3 µM; IC50 at 48 h [5]: 3 µM; IC50 at 48 h [6]: 3 µM
3 | CC(C)(C)OC(=O)N[C@H]1CC[C@@H](n2cc(COc3cccc4cnc(Nc5cc(Cl)cc(Cl)c5)nc34)nn2)CC1 [15b, tert-Butyl ((cis)-4-(4-(((2-((3,5-dichlorophenyl)amino)quinazolin-8-yl)oxy)methyl)-1H-1,2,3-triazol-1-yl)cyclohexyl)carbamate] | ≥ 100 | 74 | 96 | 73 | ≥ 100 | 68 | 92 | 61 | 75 | 73 | 95 | ≥ 100 | 89 | 58 | 93 | 57 | ≥ 100 | 81 | 20 | 21 | IC50 at 48 h [3]: 8 µM; IC50 at 48 h [4, 7]: > 25 µM; IC50 at 48 h [4, 8]: > 25 µM; IC50 at 48 h [5]: > 25 µM; IC50 at 48 h [6]: > 25 µM
4 | CC(C)(C)OC(=O)N[C@H]1CC[C@H](n2cc(COc3cccc4cnc(Nc5cc(Cl)cc(Cl)c5)nc34)nn2)CC1 [18b, tert-Butyl ((trans)-4-(4-(((2-((3,5-dichlorophenyl)amino)quinazolin-8-yl)oxy)methyl)-1H-1,2,3-triazol-1-yl)cyclohexyl)carbamate] | ≥ 100 | 85 | 86 | 72 | 85 | 81 | 98 | 83 | 94 | 68 | ≥ 100 | ≥ 100 | 72 | 53 | 75 | 35 | ≥ 100 | 92 | 10 | > 25 | IC50 at 48 h [3]: > 25 µM; IC50 at 48 h [4, 7]: > 25 µM; IC50 at 48 h [4, 8]: > 25 µM; IC50 at 48 h [5]: > 25 µM; IC50 at 48 h [6]: > 25 µM
